Experimental data as given in patent US8105993B2, “Process compositions and production of acyl alkylisethionate compositions” (Huntsman Petrochemical LLC, priority 2006, dated 2012).

What was measured:
Zein = Zein irritation score (in vitro mildness); conditions: the lower the score, the more mild
Procedure: To evaluate the mildness of the products of the present invention, Zein scores were determined for a variety of sulfate and isethionate surfactants and their scores are reported in Table III:
The lower the Zein score, the more mild the composition.

[1] = levels of 10% by weight; cited from earlier work
[2] = Foaming test, one-liter capped rotating measuring cylinder foam machine; format: physicochemical; conditions: FIGS. 1A and 1B; 0.5% active of surfactant; compared with SLES or SLS based cleansers
Procedure: Foaming tests were performed using a one-liter capped rotating measuring cylinder foam machine at a rate of 30 revolutions per minute and ambient temperature ranging from about 20° C. to about 22° C. and at a concentration of 0.5% of total surfactants. Foam heights in the graduated cylinder were measured at the start and at 10 minutes of rotation. The results are shown below in Table I:
A second foaming test was performed using the same parameters as above, but a stripped coco fatty acid chain SCMI was tested in place of a whole coco fatty acid chain SCMI.

CCCCCCCCCCCC(=O)OC(C)CS(=O)(=O)[O-].[Na+] (centres unmarked) [Sodium Lauroyl Methyl Isethionate]
Zein Score (Zein): 134 mg N/100 ml solution

CCCCCCCCCCCCOS(=O)(=O)[O-].[Na+] [Sodium Lauryl Sulfate, sodium lauryl sulfate, reference compound]
Zein Score (Zein): 527 mg N/100 ml solution

Sodium Cocoyl Ethyl Isethionate
Zein Score (Zein): 104 mg N/100 ml solution

Sodium Lauroyl Ethyl Isethionate
Zein Score (Zein): 187 mg N/100 ml solution

sodium cocoyl isethionate [reference compound]
Zein Score (Zein): 254 mg N/100 ml solution
skin and eye irritancy [1]: non-skin irritant and eye irritant

sodium cocoyl methyl isethionate
foam appearance [2]: tighter and creamier
Zein Score (Zein): 147 mg N/100 ml solution
